We go through three compounds from ChEMBL document CHEMBL5512645, “A novel antimicrobial peptide with broad-spectrum and exceptional stability derived from the natural peptide Brevicidine” (Eur J Med Chem, 2024).

In series [1] the test system is Staphylococcus aureus. The series is described as follows: Induction of morphological changes in Staphylococcus aureus ATCC 25923 assessed as adhesion at 2 times MIC measured after 0.5 hrs by SEM based analysis. Type of series: functional, organism-based.
Series [2] relates to Staphylococcus aureus. The series is described as follows: Antibacterial activity against Staphylococcus aureus ATCC 25923 assessed as fold increase in MIC pretreated with MgCl2 followed by compound addition and measured after 2 hrs by broth microdilution method. Type of series: functional. For orientation: Broth dilution looks for growth in wells or tubes with falling amounts of substance.

Series [3] concerns Staphylococcus aureus. In words: Antibacterial activity against Staphylococcus aureus ATCC 25923 pretreated with Mgcl2 followed by compound addition and measured after 2 hrs by broth microdilution method (reference value: 8 microM). It counts as functional.
For series [4], the system named is Staphylococcus aureus. In words: Bactericidal activity against Staphylococcus aureus ATCC 25923 assessed as assessed as eradication of bacterial cells at 1/2 times MIC measured after 6 hrs by time killing analysis. It counts as functional, organism-based.
Series [5] has as its system Pseudomonas aeruginosa. The series is described as follows: Bactericidal activity against Pseudomonas aeruginosa ATCC 27853 assessed as assessed as eradication of bacterial cells at 2 to 4 times MIC measured after 10 mins by time killing analysis. Type of series: functional, organism-based.
Series [6] is described as follows: Toxicity in male BALB/c mouse assessed as survival rate at 132.7 mg/kg, ip measured after 6 days relative to control. It counts as organism-based. Conditions: in vivo, time 6 day.
The subject of series [7] is Staphylococcus aureus. In words: Antibacterial activity against Staphylococcus aureus ATCC 25923 assessed as fold increase in MIC pretreated with 2.5 to 20% mouse serum followed by compound addition and measured after 1 to 6 hrs by broth microdilution method. Type of series: functional. Particulars: time 1-6 hrs.
Series [8] in a line: Toxicity in male BALB/c mouse assessed as survival rate at 90.9 mg/kg, ip measured after 6 days relative to control. It counts as organism-based. Particulars: in vivo, time 6 day.
For series [9], the system named is Pseudomonas aeruginosa. The series is described as follows: Induction of morphological changes in Pseudomonas aeruginosa ATCC 27853 assessed as adhesion at 2 times MIC measured after 0.5 hrs by SEM based analysis. It counts as functional, organism-based.
For series [10], the system named is Staphylococcus aureus. The series is described as follows: Antibacterial activity against Staphylococcus aureus ATCC 25923 pretreated with 2.5% mouse serum followed by compound addition and measured after 1 hr by broth microdilution method (reference value: 8 microM). It counts as functional.
Series [11] has as its system Staphylococcus aureus. In words: Antibacterial activity against Staphylococcus aureus ATCC 25923 assessed as fold increase in MIC pretreated with FeCl3 followed by compound addition and measured after 2 hrs by broth microdilution method. Type of series: functional.
Series [12] has as its system Staphylococcus aureus. The series is described as follows: Antibacterial activity against Staphylococcus aureus ATCC 25923 pretreated with ZnCl2 followed by compound addition and measured after 2 hrs by broth microdilution method (reference value: 8 microM). Type of series: functional.
Series [13] has as its system Staphylococcus aureus. In words: Antibacterial activity against Staphylococcus aureus ATCC 25923 assessed as fold increase in MIC pretreated with KCl followed by compound addition and measured after 2 hrs by broth microdilution method. It counts as functional.
The test system of series [14] is Staphylococcus aureus. The series is described as follows: Antibacterial activity against Staphylococcus aureus ATCC 25923 pretreated with 10% mouse serum followed by compound addition and measured after 6 hrs by broth microdilution method (reference value: 64 microM). Type of series: functional.
For series [15], the system named is Staphylococcus aureus. In words: Induction of morphological changes in Staphylococcus aureus ATCC 25923 assessed as membrane rupture at 2 times MIC measured after 0.5 hrs by SEM based analysis. It counts as functional, organism-based.
In series [16] the test system is Staphylococcus aureus. The series is described as follows: Antibacterial activity against Staphylococcus aureus ATCC 25923 assessed as fold increase in MIC pretreated with Na-cl followed by compound addition and measured after 2 hrs by broth microdilution method. Type of series: functional.
Series [17] concerns Staphylococcus aureus. In words: Antibacterial activity against Staphylococcus aureus ATCC 25923 pretreated with 2.5% mouse serum followed by compound addition and measured after 1 hr by broth microdilution method (reference value: 64 microM). It counts as functional.
In series [18] the test system is Cell membrane. The series is described as follows: Induction of cytoplasmic membrane depolarization in Staphylococcus aureus ATCC 25923 assessed as increase in fluorescence intensity at 1/2 to 4 times MIC measured within 1 min by DiSC3-5 dye based fluorescence method. Type of series: cell membranes.
The subject of series [19] is Staphylococcus aureus. In words: Antibacterial activity against Staphylococcus aureus ATCC 25923 pretreated with Fecl3 followed by compound addition and measured after 2 hrs by broth microdilution method (reference value: 64 microM). Type of series: functional.
The test system of series [20] is Staphylococcus aureus. In words: Antibacterial activity against Staphylococcus aureus ATCC 25923 pretreated with Mgcl2 followed by compound addition and measured after 2 hrs by broth microdilution method (reference value: 64 microM). It counts as functional.
Series [21] deals with Pseudomonas aeruginosa. The series is described as follows: Bactericidal activity against Pseudomonas aeruginosa ATCC 27853 assessed as assessed as eradication of bacterial cells at 1/2 to 1 times MIC measured after 1 hr by time killing analysis relative to control. It counts as functional.
In series [22] the test system is Staphylococcus aureus. The series is described as follows: Antibacterial activity against Staphylococcus aureus ATCC 25923 pretreated with 2.5% mouse serum followed by compound addition and measured after 6 hrs by broth microdilution method (reference value: 64 microM). Type of series: functional.
Series [23] deals with Staphylococcus aureus. The series is described as follows: Antibacterial activity against Staphylococcus aureus ATCC 25923 pretreated with ZnCl2 followed by compound addition and measured after 2 hrs by broth microdilution method (reference value: 16 microM). It counts as functional, organism-based.
Series [24] deals with Pseudomonas aeruginosa. The series is described as follows: Antibiofilm activity against Pseudomonas aeruginosa ATCC 27853 assessed as biofilm eradication at 1/2 to 4 times MIC measured after 24 hrs by crystal violet staining based analysis. Type of series: functional, organism-based.
For series [25], the system named is Staphylococcus aureus. In words: Antibacterial activity against Staphylococcus aureus ATCC 25923 pretreated with 2.5% mouse serum followed by compound addition and measured after 6 hrs by broth microdilution method (reference value: 16 microM). Type of series: functional, organism-based.
Series [26] concerns Staphylococcus aureus. The series is described as follows: Antibacterial activity against Staphylococcus aureus ATCC 25923 pretreated with Mgcl2 followed by compound addition and measured after 2 hrs by broth microdilution method (reference value: 16 microM). Type of series: functional, organism-based.
Series [27] has as its system Staphylococcus aureus. The series is described as follows: Antibacterial activity against Staphylococcus aureus ATCC 25923 pretreated with 10% mouse serum followed by compound addition and measured after 6 hrs by broth microdilution method (reference value: 16 microM). It counts as functional, organism-based.
Series [28] deals with Staphylococcus aureus. In words: Antibacterial activity against Staphylococcus aureus ATCC 25923 at sub-MIC measured after 6 days. It counts as functional, organism-based. Particulars: time 6.0 day.
Series [29] deals with Staphylococcus aureus. In words: Antibacterial activity against Staphylococcus aureus ATCC 25923 pretreated with 2.5% mouse serum followed by compound addition and measured after 1 hrs by broth microdilution method (reference value: 16 microM). It counts as functional, organism-based.
Series [30] concerns Cell membrane. In words: Induction of cytoplasmic membrane depolarization in Staphylococcus aureus ATCC 25923 assessed as increase in fluorescence intensity at 4 times MIC measured upto 12 min by DiSC3-5 dye based fluorescence method. Type of series: cell membranes.
Series [31] deals with Staphylococcus aureus. In words: Antibacterial activity against Staphylococcus aureus ATCC 25923 pretreated with 5% mouse serum followed by compound addition and measured after 1 hr by broth microdilution method (reference value: 16 microM). Type of series: functional, organism-based.
Series [32] deals with Staphylococcus aureus. The series is described as follows: Antibacterial activity against Staphylococcus aureus ATCC 25923 pretreated with FeCl3 followed by compound addition and measured after 2 hrs by broth microdilution method (reference value: 16 microM). Type of series: functional, organism-based.

≈ marks a conversion by molar mass, not a printed value. Calls of active or inactive are those of the source. No cut-off for these calls is given here. Bridge positions count the residues as written; N and C are the ends. Square brackets hold non-standard residues; d marks the D form. Peptide text beside a SMILES is read from it. * marks the point of attachment. ξ: configuration not given here. Hexanoyl(4ξ-Me) = CCC(C)CCC(=O)*; dOrn = NCCC[C@@H](N)C(=O)O; Orn = NCCC[C@H](N)C(=O)O

As to `CCCCCCCCCC(=O)N[C@H](CCCN)C(=O)N[C@H](Cc1ccc(O)cc1)C(=O)N[C@H](Cc1c[nH]c2ccccc12)C(=O)N[C@H](CCCN)C(=O)N[C@@H](CCCN)C(=O)NCC(=O)N[C@H](CCCN)C(=O)N[C@@H](Cc1c[nH]c2ccccc12)C(=O)N[C@H](C(=O)N[C@H](C(=O)NCC(=O)N[C@@H](CO)C(=O)O)[C@@H](C)CC)[C@@H](C)O`, the outcome in the series with Staphylococcus aureus [1], in the series with Staphylococcus aureus [4], in the series with Pseudomonas aeruginosa [5] and in the series on Pseudomonas aeruginosa [9] was Active. For the same compound, the “fold change (FC)” value with Staphylococcus aureus [2] is reported as 2; in the series with Staphylococcus aureus [7], 4; with Staphylococcus aureus [11], 2; with Staphylococcus aureus [13], 2. Further, the MIC was 8 µM (≈ 12.6 µg/mL) in the series with Staphylococcus aureus [3], 16 µM (≈ 25.3 µg/mL) in the series on Staphylococcus aureus [10] and 32 µM (≈ 50.6 µg/mL) with Staphylococcus aureus [12]. Also, the results for the survival at 144 h in [6] and in [8] were 0% and 12.5%, respectively.

With `CCC(C)CCC(=O)N[C@H](CC(N)=O)C(=O)N[C@H](Cc1ccc(O)cc1)C(=O)N[C@H](Cc1c[nH]c2ccccc12)C(=O)N[C@H](CCCN)C(=O)N[C@@H](CCCN)C(=O)NCC(=O)N[C@H](CCCN)C(=O)N[C@@H](Cc1c[nH]c2ccccc12)C(=O)N[C@@H]1C(=O)N[C@@H]([C@@H](C)CC)C(=O)NCC(=O)N[C@@H](CO)C(=O)O[C@@H]1C` (some centres not stated) ({Hexanoyl(4ξ-Me)}-[dN][dY][dW][dOrn][Orn]G[dOrn]WTIGS; ester 9-C), the minimum inhibitory concentration (MIC) amounted to 128 µM (≈ 195 µg/mL) in the series on Staphylococcus aureus [14]; 64 µM (≈ 97.3 µg/mL) with Staphylococcus aureus [17]; 64 µM (≈ 97.3 µg/mL) in the series on Staphylococcus aureus [19]; 64 µM (≈ 97.3 µg/mL) in the series with Staphylococcus aureus [20]; 128 µM (≈ 195 µg/mL) in the series on Staphylococcus aureus [22]. In addition, the result with Staphylococcus aureus [15] and in the series with Cell membrane [18] was Active. For the same compound, in the series on Staphylococcus aureus [16], the “fold change (FC)” value is given as 2. In addition, in the series with Pseudomonas aeruginosa [21], the Activity amounted to 100%.

As to POLYMYXIN B, the MIC in the series on Staphylococcus aureus [23] was found to be 32 µM; in the series on Staphylococcus aureus [25], 16 µM; in the series on Staphylococcus aureus [26], 8 µM; in the series on Staphylococcus aureus [27], 16 µM; with Staphylococcus aureus [29] it was 16 µM; in the series on Staphylococcus aureus [31], 16 µM. Besides, in the series on Staphylococcus aureus [32], the MIC was found to be 8 µM. In the series with Pseudomonas aeruginosa [24], the outcome was Active. The result in the series on Staphylococcus aureus [28] and in the series on Cell membrane [30] was inactive.

For orientation: MIC means the least concentration at which growth counts as inhibited.
